Tested on: M-NFS-60 cells
Experiment: M-NFS-60 cell in vitro assay (CCK, 48 h, M-CSF factor medium)
Type: cell-based
Settings: M-NFS-60 cells; read-out: M-NFS-60cellassay IC50
In short: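 Mouse M-NFS-60 cells (2000/well) in RPMI-1640 with 10% serum and M-CSF (25 ng/ml) were pre-incubated 4 h, then exposed to DMSO-diluted compound gradients for 48 h at 5% CO2. Viability read by CCK, 2 h, OD 450 nm; IC50 from curve fitting.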

Row | SMILES | IC50
1 | Cn1cc2ncc(N[C@H]3CCc4c(NC(=O)c5cccc(C6CC6)c5)cccc43)cc2n1 [Compound 81, (S)-3-cyclopropyl-N-(1-((2-methyl-2H-pyrazolo[4,3-b]pyridin-6-yl)amino)-2,3-dihydro-1H-inden-4-yl)benzamide] | < 50 nM
2 | Cc1cccc(C(=O)Nc2cccc3c2CC[C@@H]3Nc2cnc3cn(C)nc3c2)c1F [Compound 82, (S)-2-fluoro-3-methyl-N-(1-((2-methyl-2H-pyrazolo[4,3-b]pyridin-6-yl)amino)-2,3-dihydro-1H-inden-4-yl)benzamide] | < 50 nM
3 | Cc1cccc(C(=O)Nc2ccc(F)c3c2CC[C@@H]3Nc2cnc3cn(C)nc3c2)c1F [Compound 83, (S)-2-fluoro-N-(7-fluoro-1-((2-methyl-2H-pyrazolo[4,3-b]pyridin-6-yl)amino)-2,3-dihydro-1H-inden-4-yl)-3-methylbenzamide] | < 50 nM
4 | Cc1cccc(NC(=O)c2ccc(F)c3c2CC[C@@H]3Nc2cnc3cn(C)nc3c2)c1F [Compound 84, (S)-7-fluoro-N-(2-fluoro-3-methylphenyl)-1-((2-methyl-2H-pyrazolo[4,3-b]pyridin-6-yl)amino)-2,3-dihydro-1H-indene-4-carboxamide] | < 50 nM
5 | Cn1ncc2ncc(O[C@H]3CCc4c(C(=O)Nc5cccc(C6CC6)c5)ccc(F)c43)cc21 [Compound 85, (S)—N-(3-cyclopropylphenyl)-7-fluoro-1-((1-methyl-1H-pyrazolo[4,3-b]pyridin-6-yl)oxy)-2,3-dihydro-1H-indene-4-carboxamide] | < 50 nM
6 | Cn1ncc2ncc(N[C@H]3CCc4c(Nc5cc(C(C)(C)C(F)(F)F)on5)cccc43)nc21 [Compound 87, (S)—N′-(1-methyl-1H-pyrazolo[3,4-b]pyrazin-6-yl)-N^4-(5-(1,1,1-trifluoro-2-methylpropan-2-yl)isoxazol-3-yl)-2,3-dihydro-1H-indene-1,4-diamine] | < 50 nM
7 | Cn1ncc2ncc(N[C@H]3CCc4c(C(=O)Nc5cccc(C6CC6)c5)cccc43)nc21 [Compound 88, (S)—N-(3-cyclopropylphenyl)-1-((1-methyl-1H-pyrazolo[3,4-b]pyrazin-6-yl)amino)-2,3-dihydro-1H-indene-4-carboxamide] | < 50 nM
8 | Cn1cc2ncc(N[C@H]3CCc4c(Nc5cc(C(C)(C)C)on5)cccc43)cc2n1 [Compound 90, (S)—N^4-(5-(tert-butyl)isoxazol-3-yl)-N^1-(2-methyl-2H-pyrazolo[4,3-b]pyridin-6-yl)-2,3-dihydro-1H-indene-1,4-diamine] | < 50 nM
9 | Cn1ncc2ncc(N[C@H]3CCc4c(Nc5cc(C(C)(C)C)on5)cccc43)cc21 [Compound 91a] | < 50 nM
10 | Cn1ncc2ncc(N[C@H]3CCc4c(Nc5nc(C(C)(C)C)cs5)cccc43)cc21 [Compound 91b] | 50 to 200 nM
11 | COCC(C)(C)c1cc(Nc2cccc3c2CC[C@@H]3Nc2cnc3cnn(C)c3c2)no1 [Compound 91c] | < 50 nM
12 | Cn1ncc2ncc(N[C@H]3CCc4c(Nc5cc(C(C)(C)CO)on5)cccc43)cc21 [Compound 91d] | < 50 nM
13 | CC(C)c1cc(Nc2cccc3c2CC[C@@H]3Nc2cnc3cnn(C)c3c2)no1 [Compound 91e] | < 50 nM
14 | Cn1ncc2ncc(N[C@H]3CCc4c(Nc5ncc(C(C)(C)C)s5)cccc43)cc21 [Compound 91f] | < 50 nM
15 | Cn1ncc2ncc(N[C@H]3CCc4c(Nc5nc(C(C)(C)C)co5)cccc43)cc21 [Compound 91g] | 50 to 200 nM
16 | Cn1cc2ncc(N[C@H]3CCc4c(Nc5ncc(C(C)(C)C)s5)cccc43)cc2n1 [Compound 91h] | < 50 nM
17 | Cn1cc2ncc(N[C@H]3CCc4c(Nc5nc(C(C)(C)C)cs5)cccc43)cc2n1 [Compound 91i] | < 50 nM
18 | Cn1cc2ncc(N[C@H]3CCc4c(Nc5cc(C(C)(C)C(F)(F)F)on5)cccc43)cc2n1 [Compound 91j] | < 50 nM
19 | Cn1cc2ncc(N[C@H]3CCc4c(Nc5cc(C6(C)CCC6)on5)cccc43)cc2n1 [Compound 91k] | < 50 nM
20 | Cn1cc2ncc(N[C@H]3CCc4c(Nc5cc(C6(C)CCCC6)on5)cccc43)cc2n1 [Compound 91l] | < 50 nM
21 | Cn1cc2ncc(N[C@H]3CCc4c(Nc5cc(C6(C(F)(F)F)CC6)on5)cccc43)cc2n1 [Compound 91m] | < 50 nM
22 | Cn1cc2ncc(N[C@H]3CCc4c(Nc5cc(C6(C(F)(F)F)CCC6)on5)cccc43)cc2n1 [Compound 91n] | < 50 nM
23 | Cn1cc2ncc(N[C@H]3CCc4c(Nc5cc(C6(C(F)(F)F)CCCC6)on5)cccc43)cc2n1 [Compound 91o] | < 50 nM
24 | Cn1cc2ncc(N[C@H]3CCc4c(Nc5cc(C67CC(C6)C7)on5)cccc43)cc2n1 [Compound 91r] | < 50 nM
25 | Cn1cc2ncc(N[C@H]3CCc4c(Nc5cc(C67CC(F)(C6)C7)on5)cccc43)cc2n1 [Compound 91s] | < 50 nM
26 | Cn1cc2ncc(N[C@H]3CCc4c(Nc5noc(C6(C)COC6)n5)cccc43)cc2n1 [Compound 92, (S)—N^1-(2-methyl-2H-pyrazolo[4,3-b]pyridin-6-yl)-N^4-(5-(3-methyloxetan-3-7)-1,2,4-oxadiazol-3-yl)-2,3-dihydro-1H-indene-1,4-d] | > 500 nM

Row | SMILES | IC50
27 | Cn1ncc2ncc(N[C@H]3CCc4c(Nc5noc(C(C)(C)C)n5)cccc43)cc21 [Compound 93a] | < 50 nM
28 | CN1CCC[C@@H]1c1nc(Nc2cccc3c2CC[C@@H]3Nc2cnc3cn(C)nc3c2)no1 [Compound 93b] | 50 to 200 nM
29 | CN1CCC[C@H]1c1nc(Nc2cccc3c2CC[C@@H]3Nc2cnc3cn(C)nc3c2)no1 [Compound 93c] | 50 to 200 nM
30 | Cn1cc2ncc(N[C@H]3CCc4c(Nc5noc(C6(C)CC6)n5)cccc43)cc2n1 [Compound 93d] | < 50 nM
31 | Cn1cc2ncc(N[C@H]3CCc4c(Nc5noc(C6(CO)CC6)n5)cccc43)cc2n1 [Compound 93e] | 50 to 200 nM
32 | Cn1cc2ncc(N[C@H]3CCc4c(Nc5noc(C(C)(C)C(F)(F)F)n5)cccc43)cc2n1 [Compound 93f] | < 50 nM
33 | Cn1cc2ncc(N[C@H]3CCc4c(Nc5noc(C6(C(F)(F)F)CC6)n5)cccc43)cc2n1 [Compound 93g] | < 50 nM
34 | Cn1cc2ncc(N[C@H]3CCc4c(Nc5noc(C6(C(F)(F)F)CCC6)n5)cccc43)cc2n1 [Compound 93h] | < 50 nM
35 | Cn1cc2ncc(N[C@H]3CCc4c(Nc5noc(C(C)(C)C)n5)cccc43)cc2n1 [Compound 93i] | < 50 nM
36 | Cn1cc2ncc(N[C@H]3CCc4c(Nc5noc(C6CC6)n5)cccc43)cc2n1 [Compound 93j] | 200 to 500 nM
37 | Cn1cc2ncc(N[C@H]3CCc4c(Nc5noc(C6CCCC6)n5)cccc43)cc2n1 [Compound 93k] | < 50 nM
38 | Cn1cc2ncc(N[C@H]3CCc4c(Nc5noc(C6(C(F)(F)F)CCCC6)n5)cccc43)cc2n1 [Compound 93l] | < 50 nM
39 | Cn1cc2ncc(N[C@H]3CCc4c(Nc5noc(C6(C)CCCC6)n5)cccc43)cc2n1 [Compound 93m] | < 50 nM
40 | Cn1cc2ncc(N[C@H]3CCc4c(Nc5noc(C6(C)CCC6)n5)cccc43)cc2n1 [Compound 93n] | < 50 nM
41 | Cn1cc2ncc(N[C@H]3CCc4c(Nc5noc(C(C)(C)CF)n5)cccc43)cc2n1 [Compound 93o] | < 50 nM
42 | Cn1cc2ncc(N[C@H]3CCc4c(Nc5noc(C(F)(F)F)n5)cccc43)cc2n1 [Compound 93p] | > 500 nM
43 | Cn1cc2ncc(N[C@H]3CCc4c(Nc5noc(C67CC(C6)C7)n5)cccc43)cc2n1 [Compound 93q] | < 50 nM
44 | Cn1cc2ncc(N[C@H]3CCc4c(Nc5noc(C67CC(F)(C6)C7)n5)cccc43)cc2n1 [Compound 93r] | < 50 nM
45 | CN(c1cnc2cnn(C)c2c1)[C@H]1CCc2c(Nc3cc(C(C)(C)C)on3)cccc21 [Compound 94, (S)—N^4-(5-(tert-butyl)isoxazol-3-yl)-N^1-methyl-N^1-(1-methyl-1H-pyrazolo[4,3-b]pyridin-6-yl)-2,3-dihydro-1H-indene-1,4-diamine] | 200 to 500 nM
46 | Cn1ncc2ncc(O[C@H]3CCc4c(Nc5cc(C(C)(C)C)on5)cccc43)cc21 [Compound 95, (S)-5-(tert-butyl)-N-(1-((1-methyl-1H-pyrazolo[4,3-b]pyridin-6-yl)oxy)-2,3-dihydro-1H-inden-4-yl) isoxazol-3-amine] | 200 to 500 nM
47 | Cn1cc2ncc(N[C@H]3CCc4c(CNc5cccc(C6CC6)c5)cccc43)cc2n1 [Compound 96a] | 50 to 200 nM
48 | Cc1cccc(NCc2cccc3c2CC[C@@H]3Nc2cnc3cn(C)nc3c2)c1 [Compound 96b] | 50 to 200 nM
49 | Cn1cc2ncc(N[C@H]3CCc4c(CNc5cccc(F)c5)cccc43)cc2n1 [Compound 96c] | > 500 nM
50 | Cn1cc2ncc(N[C@H]3CCc4c(CNc5nc(C6CC6)cs5)cccc43)cc2n1 [Compound 96d] | > 500 nM
51 | O=C(Nc1cccc(C2CC2)c1)c1cccc2c1CC[C@@H]2Nc1cnc2cn[nH]c2c1 [Compound 97, (S)-1-((1H-pyrazolo[4,3-b]pyridin-6-yl)amino)-N-(3-cyclopropylphenyl)-2,3-dihydro-1H-indene-4-carboxamide] | < 50 nM

Reference: patent US20260125359A1, “HETEROARYL COMPOUNDS AS MULTI-TARGET PROTEIN KINASE INHIBITORS” (FUJIAN HAIXI PHARMACEUTICALS CO., LTD., priority 2023, published 2026)
